From patent publication US10189836B2, “Therapeutic compounds, compositions and methods of use thereof” (Genentech, Inc., priority 2015, dated 2019)

How the values were obtained:
[1] = biological target: isolated recombinant JAK1 kinase domain (Homo sapiens (Human), UniProt P23458); test: JAK1 enzyme assay (Caliper LabChip, Ki); type: biochemical; conditions: isolated recombinant JAK1 kinase domain, 1.5 nM enzyme, ATP 25 μM
[2] = biological target: isolated recombinant JAK2 kinase domain (Homo sapiens (Human), UniProt O60674); test: JAK2 enzyme assay (Caliper LabChip, Ki); type: biochemical; conditions: isolated recombinant JAK2 kinase domain, 0.2 nM enzyme, ATP 25 μM
isolated recombinant JAK2 kinase domain, sequence (O60674 849-1124): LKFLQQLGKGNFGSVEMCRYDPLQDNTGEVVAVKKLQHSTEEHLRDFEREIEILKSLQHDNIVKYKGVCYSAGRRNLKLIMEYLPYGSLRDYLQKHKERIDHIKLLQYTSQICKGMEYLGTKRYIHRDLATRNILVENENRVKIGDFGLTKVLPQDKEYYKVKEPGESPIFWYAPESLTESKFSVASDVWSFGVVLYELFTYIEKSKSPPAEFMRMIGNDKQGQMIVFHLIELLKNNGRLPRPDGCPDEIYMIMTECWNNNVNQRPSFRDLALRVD

isolated recombinant JAK1 kinase domain, sequence (P23458 875-1153): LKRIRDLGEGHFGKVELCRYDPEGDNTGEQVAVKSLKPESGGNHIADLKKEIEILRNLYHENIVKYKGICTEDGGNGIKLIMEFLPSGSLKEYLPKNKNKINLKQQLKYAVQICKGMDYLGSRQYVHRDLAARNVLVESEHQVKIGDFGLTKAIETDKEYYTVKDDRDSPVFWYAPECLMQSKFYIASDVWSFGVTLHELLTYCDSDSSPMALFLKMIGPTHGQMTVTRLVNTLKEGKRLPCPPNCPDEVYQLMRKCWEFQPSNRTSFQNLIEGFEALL

| SMILES | Ki [1] [nM] | Ki [2] [nM] |
| --- | --- | --- |
| CN1CCN(C(=O)Cn2cc(Nc3nc4c(N5C[C@H]6CC[C@@H](C5)[C@H]6OCc5ccccc5)cccn4n3)cn2)CC1 [Example 1, 2-[4-[[8-[(1S,5R)-8-benzyloxy-3-azabicyclo[3.2.1]octan-3-yl]-[1,2,4]triazolo[1,5-a]pyridin-2-yl]amino]pyrazol-1-yl]-1-(4-methylpiperazin-1-yl)ethanone] | 0.2 | 0.6 |
| CN1CCN(C(=O)Cn2cc(Nc3nc4c(N5CC6CCC(C5)N6C(=O)COCC(F)(F)F)cccn4n3)cn2)CC1 [Example 45, 1-(4-methylpiperazin-1-yl)-2-[4-[[8-[8-[2-(2,2,2-trifluoroethoxy)acetyl]-3,8-diazabicyclo[3.2.1]octan-3-yl]-[1,2,4]triazolo[1,5-a]pyridin-2-yl]amino]pyrazol-1-yl]ethanone] | 1 | 3.5 |
| CN1CCN(C(=O)Cn2cc(Nc3nc4c(N5CC6CCCC(C5)N6C(=O)CCC(F)(F)F)cccn4n3)cn2)CC1 [Example 4, 4,4,4-trifluoro-1-[3-[2-[[1-[2-(4-methylpiperazin-1-yl)-2-oxo-ethyl]pyrazol-4-yl]amino]-[1,2,4]triazolo[1,5-a]pyridin-8-yl]-3,9-diazabicyclo[3.3.1]nonan-9-yl]butan-1-one] | 0.5 | 0.8 |
| CN1CCN(C(=O)Cn2cc(Nc3nc4c(N5CC6CCC(C5)N6S(=O)(=O)C5CC5)cccn4n3)cn2)CC1 [Example 177, 2-[4-[[8-(8-cyclopropylsulfonyl-3,8-diazabicyclo[3.2.1]octan-3-yl)-[1,2,4]triazolo[1,5-a]pyridin-2-yl]amino]pyrazol-1-yl]-1-(4-methylpiperazin-1-yl)ethanone] | 2.1 | 7.5 |
| CN1CCN(C(=O)Cn2cc(Nc3nc4c(N5CC6CCC(C5)N6C(=O)N5CC(F)(F)C5)cccn4n3)cn2)CC1 [Example 173, 2-[4-[[8-[8-(3,3-difluoroazetidine-1-carbonyl)-3,8-diazabicyclo[3.2.1]octan-3-yl]-[1,2,4]triazolo[1,5-a]pyridin-2-yl]amino]pyrazol-1-yl]-1-(4-methylpiperazin-1-yl)ethanone] | 0.5 | 0.5 |
| CN1CCN(C(=O)Cn2cc(Nc3nc4c(N5CC6CCC(C5)N6C(=O)C5CC5C(F)(F)F)cccn4n3)cn2)CC1 (stereo not shown) [Example 14, 1-(4-methylpiperazin-1-yl)-2-[4-[[8-[8-[2-(trifluoromethyl)cyclopropanecarbonyl]-3,8-diazabicyclo[3.2.1]octan-3-yl]-[1,2,4]triazolo[1,5-a]pyridin-2-yl]amino]pyrazol-1-yl]ethanone] | 1 | 1.1 |
| CN1CCN(C(=O)Cn2cc(Nc3nc4c(N5CC6CCC(C5)N6C(=O)C(C)(C)CC(F)(F)F)cccn4n3)cn2)CC1 [Example 71, 4,4,4-trifluoro-2,2-dimethyl-1-[3-[2-[[1-[2-(4-methylpiperazin-1-yl)-2-oxo-ethyl]pyrazol-4-yl]amino]-[1,2,4]triazolo[1,5-a]pyridin-8-yl]-3,8-diazabicyclo[3.2.1]octan-8-yl]butan-1-one] | 1.8 | 1.8 |
| CN1CCN(C(=O)Cn2cc(Nc3nc4c(N5CC6CCC(C5)N6C(=O)c5ccccc5C#N)cccn4n3)cn2)CC1 [Example 140, 2-[3-[2-[[1-[2-(4-methylpiperazin-1-yl)-2-oxo-ethyl]pyrazol-4-yl]amino]-[1,2,4]triazolo[1,5-a]pyridin-8-yl]-3,8-diazabicyclo[3.2.1]octane-8-carbonyl]benzonitrile] | 0.4 | 0.8 |
| CSc1ccc(S(=O)(=O)N2C3CCC2CN(c2cccn4nc(Nc5cnn(CC(=O)N6CCN(C)CC6)c5)nc24)C3)cc1 [Example 107, 1-(4-methylpiperazin-1-yl)-2-[4-[[8-[8-(4-methylsulfanylphenyl)-sulfonyl-3,8-diazabicyclo[3.2.1]octan-3-yl]-[1,2,4]triazolo[1,5-a]pyridin-2-yl]amino]pyrazol-1-yl]ethanone] | 0.4 | 0.8 |
| CN1CCN(C(=O)Cn2cc(Nc3nc4c(N5CC6CCC(C5)N6C(=O)C5CC(F)(F)C5)cccn4n3)cn2)CC1 [Example 46, 2-[4-[[8-[8-(3,3-difluorocyclobutanecarbonyl)-3-yl]-3,8-diazabicyclo[3.2.1]octan-[1,2,4]triazolo[1,5-a]pyridin-2-yl]amino]pyrazol-1-yl]-1-(4-methylpiperazin-1-yl)ethanone] | 1.4 | 1.7 |
| CN1CCN(C(=O)Cn2cc(Nc3nc4c(N5CC6CCC(C5)N6Cc5ccccc5C#N)cccn4n3)cn2)CC1 [Example 63, 2-[[3-[2-[[1-[2-(4-methylpiperazin-1-yl)-2-oxo-ethyl]pyrazol-4-yl]amino]-[1,2,4]triazolo[1,5-a]pyridin-8-yl]-3,8-diazabicyclo[3.2.1]octan-8-yl]methyl]benzonitrile] | 1.8 | 2.4 |
| CN1CCN(C(=O)Cn2cc(Nc3nc4c(N5CC6CCC(C5)N6Cc5ccccc5)cccn4n3)cn2)CC1 [Example 86, 2-[4-[[8-(8-benzyl-3,8-diazabicyclo[3.2.1]octan-3-yl)-[1,2,4]triazolo[1,5-a]alpyridin-2-yl]amino]pyrazol-1-yl]-1-(4-methylpiperazin-1-yl)ethanone] | 19.2 | 105 |
| CN1CCN(C(=O)Cn2cc(Nc3nc4c(N5CC6CCC(C5)N6c5ccc(Cl)cc5)cccn4n3)cn2)CC1 [Example 113, 2-[4-[[8-[8-(4-chlorophenyl)-3,8-diazabicyclo[3.2.1]octan-3-yl]-[1,2,4]triazolo[1,5-a]pyridin-2-yl]amino]pyrazol-1-yl]-1-(4-methylpiperazin-1-yl)ethanone] | 0.2 | 0.3 |
| CN1CCN(C(=O)Cn2cc(Nc3nc4c(N5C6CC5CN(C(=O)CCC(F)(F)F)C6)cccn4n3)cn2)CC1 [Example 48, 4,4,4-trifluoro-1-[6-[2-[[1-[2-(4-methylpiperazin-1-yl)-2-oxo-ethyl]pyrazol-4-yl]amino]-[1,2,4]triazolo[1,5-a]pyridin-8-yl]-3,6-diazabicyclo[3.1.1]heptan-3-yl]butan-1-one] | > 560 | > 320 |
| O=C(Cn1cc(Nc2nc3c(N4CC5CCC(C4)N5C(=O)N4CC(C(F)(F)F)C4)cccn3n2)cn1)N1CCN(C2CCOCC2)CC1 [Example 39, 1-(4-tetrahydropyran-4-ylpiperazin-1-yl)-2-[4-[[8-[8-[3-(trifluoromethyl)azetidine-1-carbonyl]-3,8-diazabicyclo[3.2.1]octan-3-yl]-[1,2,4]triazolo[1,5-a]pyridin-2-yl]amino]pyrazol-1-yl]ethanone] | 0.7 | 0.4 |
| CN1CCN(C(=O)Cn2cc(Nc3nc4c(N5C[C@H]6CC[C@@H](C5)[C@H]6OCc5cccnc5)cccn4n3)cn2)CC1 [Example 84, 1-(4-methylpiperazin-1-yl)-2-[4-[[8-[(1S,5R)-8-(3-pyridylmethoxy)-3-azabicyclo[3.2.1]octan-3-yl]-[1,2,4]triazolo[1,5-a]pyridin-2-yl]amino]pyrazol-1-yl]ethanone] | 0.4 | 0.8 |
| CN1CCN(C(=O)Cn2cc(Nc3nc4c(N5CC6CCC(C5)N6S(=O)(=O)Cc5ccccc5Cl)cccn4n3)cn2)CC1 [Example 161, 2-[4-[[8-[8-[(2-chlorophenyl)methylsulfonyl]-3,8-diazabicyclo[3.2.1]octan-3-yl]-[1,2,4]triazolo[1,5-a]pyridin-2-yl]amino]pyrazol-1-yl]-1-(4-methylpiperazin-1-yl)ethanone] | 0.6 | 0.7 |
| CC(C(=O)N1CCN(C)CC1)n1cc(Nc2nc3c(N4CC5CCC(C4)N5C(=O)C4CC(C(F)(F)F)C4)cccn3n2)cn1 (stereo not shown) [Example 125, 1-(4-methylpiperazin-1-yl)-2-[4-[[8-[8-(3-(trifluoromethyl)-cyclobutanecarbonyl]-3,8-diazabicyclo[3.2.1]octan-3-yl]-[1,2,4]triazolo[1,5-a]pyridin-2-yl]amino]pyrazol-1-yl]propan-1-one] | 0.6 | 0.4 |
| CN1CCN(C(=O)Cn2cc(Nc3nc4c(N5CC6CCC(C5)N6S(=O)(=O)c5cccnc5)cccn4n3)cn2)CC1 [Example 175, 1-(4-methylpiperazin-1-yl)-2-[4-[[8-[8-(3-pyridylsulfonyl)-3,8-diazabicyclo[3.2.1]octan-3-yl]-[1,2,4]triazolo[1,5-a]pyridin-2-yl]amino]pyrazol-1-yl]ethanone] | 0.6 | 0.9 |
| O=C(Cn1cc(Nc2nc3c(N4CC5CCC(C4)N5C(=O)CCC(F)(F)F)cccn3n2)cn1)N1CCC(CN2CCOCC2)CC1 [Example 41, 4,4,4-trifluoro-1-[3-[2-[[1-[2[4-(morpholinomethyl)-1-piperidyl]-2-oxo-ethyl]pyrazol-4-yl]amino]-[1,2,4]triazolo[1,5-a]pyridin-8-yl]-3,8-diazabicyclo[3.2.1]octan-8-yl]butan-1-one] | 2.6 | 4.6 |
| CN1CCN(C(=O)Cn2cc(Nc3nc4c(N5CC6CCC(C5)N6S(=O)(=O)Cc5cccc(F)c5)cccn4n3)cn2)CC1 [Example 159, 2-[4-[[8-[8-[(3-fluorophenyl)methylsulfonyl]-3,8-diazabicyclo[3.2.1]octan-3-yl]-[1,2,4]triazolo[1,5-a]pyridin-2-yl]amino]pyrazol-1-yl]-1-(4-methylpiperazin-1-yl)ethanone] | 0.7 | 2.9 |
| CN1CCN(C(=O)Cn2cc(Nc3nc4c(N5CC6CCC(C5)N6C(=O)CC(F)(F)F)cccn4n3)cn2)CC1 [Example 12, 3,3,3-trifluoro-1-[3-[2-[[1-[2-(4-methylpiperazin-1-yl)-2-oxo-ethyl]pyrazol-4-yl]amino]-[1,2,4]triazolo[1,5-a]pyridin-8-yl]-3,8-diazabicyclo[3.2.1]octan-8-yl]propan-1-one] | 0.7 | 1.7 |
| O=C(Cn1cc(Nc2nc3c(N4CC5CCC(C4)N5C(=O)CCC(F)(F)F)cccn3n2)cn1)N1CCN(C2CCOCC2)CC1 [Example 10, 4,4,4-trifluoro-1-[3-[2-[[1-[2-oxo-2-(4-tetrahydropyran-4-ylpiperazin-1-yl)ethyl]pyrazol-4-yl]amino]-[1,2,4]triazolo[1,5-a]pyridin-8-yl]-3,8-diazabicyclo[3.2.1]octan-8-yl]butan-1-one] | 0.7 | 1.2 |
